Measurements published in patent publication US20240254093A1, “GPR35 Agonist Compounds” (Heptares Therapeutics Limited, priority 2021, published 2024).

Legend:
GPR35 = GPR35 (Homo sapiens (Human), UniProt Q9HC97); assay: Label-free DMR functional assay in HT-29 cells; type: cell-based; conditions: HT-29 cell line endogenously expressing human GPR35; DMR normalised to Lodoxamide
Method: HT-29 cells (ATCC HTB-38) kept in continuous culture in McCoys (Thermo 16600082) supplemented with 10% FBS. Day prior to assay, cells harvested with TrypLE (Gibco12604-013), and plated at 20 k/well in culture media in a total volume of 50 ul in Corning EPIC 384 well plates (5040) overnight 37° C. 5% CO2. On the day of assay, cell media was removed and replaced with assay buffer (HBSS+20 mM HEPES pH7.4) and reincubated for 1 h. Compounds were prepared in 100% DMSO in ECHO LDV 384 source plates. Cell plates were read on an EPIC plate reader at room temperature for 15 mins, read paused, and cell plate added to LabCyte ECHO 550 for addition of 50 nl per well compound by acoustic transfer. Plates were immediately placed back into the EPIC reader, read unpaused and Dynamic Mass Redistribution measured for 60 minutes. Raw data was analysed by EPIC Analyser software and max peak taken per concentration to enable EC50 determination. All raw DMR data was normalised to Lodoxamide and buffer corrected.
(§1) • Ki values derived from concentration response analysis in HEKf cell membranes overexpressing GPR35a isoform. EC50 values derived from concentration response analysis in HT-29 cell line endogenously expressing human GPR35.

Human GPR35a isoform = Human GPR35a isoform (Homo sapiens (Human), UniProt Q9HC97); assay: Human GPR35a isoform binding (radioligand, HEK293f membranes); conditions: HEKf cell membranes overexpressing GPR35a isoform; read-out: Human GPR35 Ki
Method: Overexpression of Human GPR35a Baculovirus in HEK293f cells at a cell density of 2.5×10^6 cells/mL and a multiplicity of infection of 2.5 over 24 h in Pro293 (Lonza)+5% FBS, 1% Glutamax and 0.4% Pen/Strep. Cells harvested and centrifuged at 2500 RPM for 10 mins at 4° C. The supernatant was then poured off and the pellet stored at −80° C. The pellet was defrosted and re-suspended in 15 mL of homogenising buffer (20 mM HEPES, 10 mM EDTA, pH 7.4). Then homogenised in mechanical homogeniser (VMR) for 10 seconds. The membrane was centrifuged in centrifuge tubes at 40,000 g for 15 mins at 4° C. The supernatant was poured away and re-suspended in 15 mL of homogenising buffer. Homogenised for 20 seconds. The membrane was centrifuged at 40,000 g for 45 mins at 4° C. The membrane was re-suspended in 3 mL of storage buffer (20 mM HEPES, 0.1 mM EDTA, pH 7.4) mixing well. The resulting membranes were then stored at −80°. GPR35 cell membrane homogenates were re-suspended in the binding buffer (50 mM TRIS+10 mM MgCl2 pH 7.4) to a final assay concentration of 5 ug/well. Test compounds were diluted in dimethylsulphoxide (DMSO (Sigma Aldrich, UK)), to form a 10 point ½ log concentration curve. Test compounds were added per plate, followed by 7 nM 3H-27966. 0.1 uM FAC Lodoxamide was added in order to allow non-specific binding to be calculated. Finally, membrane was added to each well on the plate. After 60 min incubation at room temperature, membranes were filtered onto a unifilter, 96-well white microplate with bonded GF/B filter, pre-soaked in ddH20, with a TomTec cell harvester, and washed 5 times with distilled water. Plates were dried prior to 50 ul/well scintillant added, sealed and radioactivity measured using a MicroBeta analyser. IC50 values were derived from the inhibition curve and affinity constant (Ki) values were calculated using the Cheng-Prussoff equation, where; pKi=−log 10 Ki.
as §1

Sequence of Human GPR35a isoform (Q9HC97 whole entry, canonical isoform): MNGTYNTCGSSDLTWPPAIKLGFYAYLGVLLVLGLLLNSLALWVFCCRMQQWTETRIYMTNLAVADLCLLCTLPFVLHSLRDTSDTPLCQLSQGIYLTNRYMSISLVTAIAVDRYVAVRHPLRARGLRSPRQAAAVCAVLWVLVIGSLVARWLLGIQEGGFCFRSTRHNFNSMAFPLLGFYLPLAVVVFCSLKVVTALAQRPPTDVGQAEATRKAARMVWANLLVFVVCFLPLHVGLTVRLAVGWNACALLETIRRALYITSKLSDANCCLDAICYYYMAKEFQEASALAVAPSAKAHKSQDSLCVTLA
Sequence of GPR35 (Q9HC97 whole entry): as the sequence (Q9HC97 whole entry, canonical isoform) above

O=c1c(O)c(Nc2cccc(-c3nn[nH]n3)c2)c1=O [Example 1, 3-((3-(1H-tetrazol-5-yl)phenyl)amino)-4-hydroxycyclobut-3-ene-1,2-dione]
EC50 (GPR35): 8.68 nM

O=c1c(O)c(Nc2cc(-c3nn[nH]n3)cc(C(F)(F)F)c2)c1=O [Example 2, 3-((3-(1H-tetrazol-5-yl)-5-(trifluoromethyl)phenyl)amino)-4-hydroxycyclobut-3-ene-1,2-dione]
EC50 (GPR35): 0.9 nM
Ki (Human GPR35a isoform): 0.48 nM

O=c1c(O)c(Nc2cc(-c3ccccc3)cc(-c3nn[nH]n3)c2)c1=O [Example 3, 3-((5-(1H-tetrazol-5-yl)-[1,1′-biphenyl]-3-yl)amino)-4-hydroxycyclobut-3-ene-1,2-dione]
EC50 (GPR35): 2.27 nM

CCOC(=O)c1cccc(-c2cc(Nc3c(O)c(=O)c3=O)cc(-c3nn[nH]n3)c2)c1 [Example 4, ethyl 3′-((2-hydroxy-3,4-dioxocyclobut-1-en-1-yl)amino)-5′-(1H-tetrazol-5-yl)-[1,1′-biphenyl]-3-carboxylate]
EC50 (GPR35): 2.5 nM
Ki (Human GPR35a isoform): 3.83 nM

O=C(NCc1ccccc1)c1cccc(-c2cc(Nc3c(O)c(=O)c3=O)cc(-c3nn[nH]n3)c2)c1 [Example 6, N-benzyl-3′-((2-hydroxy-3,4-dioxocyclobut-1-en-1-yl)amino)-5′-(1H-tetrazol-5-yl)-[1,1′-biphenyl]-3-carboxamide]
EC50 (GPR35): 0.62 nM
Ki (Human GPR35a isoform): 1.82 nM

COCCNC(=O)c1ccc(-c2cc(Nc3c(O)c(=O)c3=O)cc(-c3nn[nH]n3)c2)cc1 [Example 7, 3′-((2-hydroxy-3,4-dioxocyclobut-1-en-1-yl)amino)-N-(2-methoxyethyl)-5′-(1H-tetrazol-5-yl)-[1,1′-biphenyl]-4-carboxamide]
EC50 (GPR35): 4.2 nM
Ki (Human GPR35a isoform): 2.77 nM

COCCOc1ccc(CNC(=O)c2ccc(-c3cc(Nc4c(O)c(=O)c4=O)cc(-c4nn[nH]n4)c3)cc2)cc1 [Example 8, 3′-((2-hydroxy-3,4-dioxocyclobut-1-en-1-yl)amino)-N-(4-(2-methoxyethoxy)benzyl)-5′-(1H-tetrazol-5-yl)-[1,1′-biphenyl]-4-carboxamide]
EC50 (GPR35): 0.66 nM
Ki (Human GPR35a isoform): 1.47 nM

COc1cccc(-c2cc(Nc3c(O)c(=O)c3=O)cc(-c3nn[nH]n3)c2)c1 [Example 9, 3-hydroxy-4-((3′-methoxy-5-(1H-tetrazol-5-yl)-[1,1′-biphenyl]-3-yl)amino)cyclobut-3-ene-1,2-dione]
EC50 (GPR35): 0.83 nM
Ki (Human GPR35a isoform): 0.46 nM

CCc1cc(Nc2c(O)c(=O)c2=O)cc(-c2nn[nH]n2)c1 [Example 10, 3-((3-ethyl-5-(1H-tetrazol-5-yl)phenyl)amino)-4-hydroxycyclobut-3-ene-1,2-dione]
EC50 (GPR35): 2.34 nM
Ki (Human GPR35a isoform): 2.75 nM

O=C(O)c1cccc(-c2cc(Nc3c(O)c(=O)c3=O)cc(-c3nn[nH]n3)c2)c1 [Example 11, 3′-((2-hydroxy-3,4-dioxocyclobut-1-en-1-yl)amino)-5′-(1H-tetrazol-5-yl)-[1,1′-biphenyl]-3-carboxylic acid]
EC50 (GPR35): 4.31 nM
Ki (Human GPR35a isoform): 6.24 nM

O=C(NCc1ccc(C(F)(F)F)cc1)c1ccc(-c2cc(Nc3c(O)c(=O)c3=O)cc(-c3nn[nH]n3)c2)cc1 [Example 12, 3′-((2-hydroxy-3,4-dioxocyclobut-1-en-1-yl)amino)-5′-(1H-tetrazol-5-yl)-N-(4-(trifluoromethyl)benzyl)-[1,1′-biphenyl]-4-carboxamide]
EC50 (GPR35): 0.03 nM
Ki (Human GPR35a isoform): 0.31 nM

O=c1c(O)c(Nc2ccc(F)c(-c3nn[nH]n3)c2)c1=O [Example 13, 3-((4-fluoro-3-(1H-tetrazol-5-yl)phenyl)amino)-4-hydroxycyclobut-3-ene-1,2-dione]
EC50 (GPR35): 2.39 nM
Ki (Human GPR35a isoform): 0.99 nM

O=c1c(O)c(Nc2ccc(Cl)c(-c3nn[nH]n3)c2)c1=O [Example 14, 3-((4-chloro-3-(1H-tetrazol-5-yl)phenyl)amino)-4-hydroxycyclobut-3-ene-1,2-dione]
EC50 (GPR35): 4.9 nM
Ki (Human GPR35a isoform): 0.6 nM

O=c1c(O)c(Nc2cc(-c3ccc(C(F)(F)F)cc3)cc(-c3nn[nH]n3)c2)c1=O [Example 15, 3-((5-(1H-tetrazol-5-yl)-4′-(trifluoromethyl)-[1,1′-biphenyl]-3-yl)amino)-4-hydroxycyclobut-3-ene-1,2-dione]
EC50 (GPR35): 2.02 nM
Ki (Human GPR35a isoform): 0.16 nM

O=c1c(O)c(Nc2cc(-c3ccc(OCc4ccccc4)nc3)cc(-c3nn[nH]n3)c2)c1=O [Example 16, 3-((3-(6-(benzyloxy)pyridin-3-yl)-5-(1H-tetrazol-5-yl)phenyl)amino)-4-hydroxycyclobut-3-ene-1,2-dione]
EC50 (GPR35): 0.27 nM
Ki (Human GPR35a isoform): 0.06 nM

COc1cc(-c2nn[nH]n2)cc(Nc2c(O)c(=O)c2=O)n1 [Example 17, 3-hydroxy-4-((6-methoxy-4-(1H-tetrazol-5-yl)pyridin-2-yl)amino)cyclobut-3-ene-1,2-dione]
EC50 (GPR35): 9.25 nM
Ki (Human GPR35a isoform): 7.85 nM

O=c1c(O)c(Nc2cc(-c3nn[nH]n3)cc(-c3ccccc3)n2)c1=O [Example 18, 3-hydroxy-4-((6-phenyl-4-(1H-tetrazol-5-yl)pyridin-2-yl)amino)cyclobut-3-ene-1,2-dione]
EC50 (GPR35): 5.18 nM
Ki (Human GPR35a isoform): 2.65 nM

O=c1c(O)c(Nc2cc(-c3ccc4nn(Cc5ccc(C(F)(F)F)cc5)cc4c3)cc(-c3nn[nH]n3)c2)c1=O [Example 19, 3-((3-(1H-tetrazol-5-yl)-5-(2-(4-(trifluoromethyl)benzyl)-2H-indazol-5-yl)phenyl)amino)-4-hydroxycyclobut-3-ene-1,2-dione]
EC50 (GPR35): 0.08 nM
Ki (Human GPR35a isoform): 0.36 nM

O=c1c(O)c(Nc2cc(-c3ccc(OCc4ccc(C(F)(F)F)cc4)nc3)cc(-c3nn[nH]n3)c2)c1=O [Example 20, 3-((3-(1H-tetrazol-5-yl)-5-(6-((4-(trifluoromethyl)benzyl)oxy)pyridin-3-yl)phenyl)amino)-4-hydroxycyclobut-3-ene-1,2-dione]
EC50 (GPR35): 7.68 nM
Ki (Human GPR35a isoform): 1.06 nM

O=c1c(O)c(Nc2cc(-c3nn[nH]n3)cc(Oc3ccccc3)n2)c1=O [Example 22, 3-hydroxy-4-((6-phenoxy-4-(1H-tetrazol-5-yl)pyridin-2-yl)amino)cyclobut-3-ene-1,2-dione]
EC50 (GPR35): 1.39 nM
Ki (Human GPR35a isoform): 3.66 nM

O=c1c(O)c(Nc2cc(-c3ccc4cn(CCOc5ccc(C(F)(F)F)cc5)nc4c3)cc(-c3nnn[nH]3)c2)c1=O [Example 23, 3-((3-(1H-tetrazol-5-yl)-5-(2-(2-(4-(trifluoromethyl)phenoxy)ethyl)-2H-indazol-6-yl)phenyl)amino)-4-hydroxycyclobut-3-ene-1,2-dione]
EC50 (GPR35): 0.12 nM
Ki (Human GPR35a isoform): 0.46 nM

O=c1c(O)c(Nc2cc(-c3nn[nH]n3)cc(C3CC3)c2)c1=O [Example 24, 3-((3-cyclopropyl-5-(1H-tetrazol-5-yl)phenyl)amino)-4-hydroxycyclobut-3-ene-1,2-dione]
EC50 (GPR35): 8.19 nM
Ki (Human GPR35a isoform): 15.2 nM

O=c1c(O)c(Nc2cc(-c3ccc4[nH]ncc4c3)cc(-c3nn[nH]n3)c2)c1=O [Example 25, 3-((3-(1H-indazol-5-yl)-5-(1H-tetrazol-5-yl)phenyl)amino)-4-hydroxycyclobut-3-ene-1,2-dione]
EC50 (GPR35): 0.44 nM
Ki (Human GPR35a isoform): 0.37 nM

O=c1c(O)c(Nc2cc(-c3ccc(OCCOc4cc(C(F)(F)F)cc(C(F)(F)F)c4)nc3)cc(-c3nn[nH]n3)c2)c1=O [Example 26, 3-((3-(6-(2-(3,5-bis(trifluoromethyl)phenoxy)ethoxy)pyridin-3-yl)-5-(1H-tetrazol-5-yl)phenyl)amino)-4-hydroxycyclobut-3-ene-1,2-dione]
EC50 (GPR35): 1.04 nM
Ki (Human GPR35a isoform): 0.36 nM

O=c1c(O)c(Nc2cc(-c3ccc(OCCOc4ccc(C(F)(F)F)cc4)nc3)cc(-c3nn[nH]n3)c2)c1=O [Example 27, 3-((3-(1H-tetrazol-5-yl)-5-(6-(2-(4-(trifluoromethyl)phenoxy)ethoxy)pyridin-3-yl)phenyl)amino)-4-hydroxycyclobut-3-ene-1,2-dione]
EC50 (GPR35): 0.54 nM
Ki (Human GPR35a isoform): 0.75 nM
